Data taken from patent publication US20150352142A1, “STABILIZED COMPOSITIONS COMPRISING HYALURONIC ACID” (Carbylan Therapeutics, Inc., priority 2013, published 2015).

Experiments:
Format in all cases: physicochemical
[1] = Effect of sucrose on HA (880) viscosity at 55° C. (Example 10); conditions: HA (880 KDa) solution
Protocol: 4.7 g of HA (Lifecore, 880 KDa) was dissolved in 600 mL of 0.9% NaCl overnight. The dissolved HA was sterile filtered with 0.2 um filter (Millipore, Opticap 4″). 0.84 mL of 1 M Sodium Phosphate, pH 6.71 was added to 167.51 mL of the filtered HA solution. Then 248.4 mg of USP grade Triamcinolone acetonide (TA) was mixed with 144.2 mL of dissolved HA in a sterile 250 mL Nalgene bottle. […] Each mixture was mixed for 1 hour. No additives were added to the control sample. For each large sample, 2±0.2 mL aliquots were placed in a sterile 4 mL glass vial which was then sealed with septum and aluminum cap. All these aliquoted samples, except the 0 hour samples, were placed in an oven set at 55° C. With the exception of the 0 hour samples, at each time point (Day 1, Day 3 and Day 7), 3 of the samples were removed from the oven and allowed to cool to room temperature. The viscosity of each sample was measured using AR550 Rheometer (TA Instrument) with 40 mm 2° steel cone at 22° C. with a 3 min time sweep. The percent retention of the HA viscosity was determined by the ratio of the viscosity (average of the 3 samples) on the specified day to that on Day 0.

[2] = Effect of sucrose on HA viscosity at 55° C. (Example 3); conditions: HA solution
Protocol: 6.9 g of HA (Lifecore, 888 KDa) was dissolved in 881 mL of 0.9% NaCl overnight. The dissolved HA was sterile filtered with 0.2 um filter (Millipore, Opticap 4″). 3.97 mL of 1 M Sodium Phosphate, pH 6.71 was added to the HA solution. Then 135.3 mg of USP grade Triamcinolone acetonide (TA) was mixed with 81.2 mL of dissolved HA in a sterile 250 mL Nalgene bottle. […] Each mixture was mixed for 1 hour. No additives were added to the control sample. For each large sample, 2±0.2 mL aliquots were placed in a sterile 4 mL glass vial which was then sealed with septum and aluminum cap. All these aliquoted samples, except the 0 hour samples, were placed in an oven set at 55° C. With the exception of the Day 0 samples, at each time point, 3 of the samples were removed from the oven and allowed to cool to room temperature. The viscosity of each sample was measured using AR550 Rheometer (TA Instrument) with 40 mm 2° steel cone at 22° C. with a 3 min time sweep. The percent retention of the HA viscosity was determined by the ratio of the viscosity (average of the 3 samples) on the specified day to that on Day 0. The stabilization ratio at Day 6 is the ratio of the percent retention of HA viscosity with the specific additive to the percent retention of HA viscosity of the sample with no additive.

[3] = Effect of additives on HA viscosity at 60° C., HA/TA (Example 16); conditions: HA solution
Protocol: Then 344.3 mg of USP grade Triamcinolone Acetonide (TA) was mixed with 206.6 mL of dissolved HA in a sterile 250 mL Nalgene bottle. […] No additives were added to the control sample. For each large sample, 2±0.2 mL aliquots were placed in a sterile 4 mL glass vial which was then sealed with septum and aluminum cap. All these aliquoted samples, except the 0 hour samples, were placed in an oven set at 60° C. With the exception of the Day 0 samples, at each time point (Day 1, Day 3 and Day 7), 3 of the samples were removed from the oven and allowed to cool to room temperature. […] The percent retention of the HA viscosity was determined by the ratio of the viscosity (average of the 3 samples) on the specified day to that on Day 0.

[4] = Effect of sucrose on HA viscosity at 80° C. (Example 1B); conditions: HA solution
Protocol: 6.9 g of hyaluronic acid, HA (Lifecore, 888 KDa) was dissolved in 881 mL of 0.9% NaCl overnight. The dissolved HA was sterile filtered with 0.2 μm filter (Millipore, Opticap 4″). 3.97 mL of 1 M sodium phosphate, pH 6.71 was added to the HA solution. Then 372 mg of USP grade triamcinolone acetonide (TA) was mixed with 223.2 mL of dissolved HA in a sterile 250 mL Nalgene bottle. […] Each mixture was mixed for 1 hour. No additives were added to the control sample. For each large sample, 2±0.2 mL aliquots were placed in a sterile 4 mL glass vial which was then sealed with septum and aluminum cap. All these aliquoted samples, except the 0 hour samples, were placed in an oven set at 80° C. With the exception of the 0 hour samples, at each time point, 3 of the samples were removed from the oven and allowed to cool to room temperature. The viscosity of each sample was measured using AR550 Rheometer (TA Instrument) with 40 mm 2° steel cone at 22° C. with a 3 min time sweep. The percent retention of the HA viscosity was determined by the ratio of the viscosity (average of the 3 samples) on the specified day to that on 0 hour. The stabilization ratio at 30 hours is the ratio of the percent retention of HA viscosity with the specific additive to the percent retention of HA viscosity of the sample with no additive.

[5] = Specific viscosity retention of crosslinked HA hydrogel/HA solution formulation with and without TA, stored at 25° C. (Example 1A)
[6] = Effect of additives on HA viscosity at 60° C., HA/TA (Example 17); conditions: HA solution
Protocol: 3.92 g of HA (Shiseido, IV=2 m^3/kg) was dissolved in 500 mL of 0.9% NaCl overnight. The dissolved HA was sterile filtered with 0.2 um filter (Millipore, Opticap 4″). 2.16 mL of 1 M Sodium Phosphate, pH 6.71 was added to the HA solution. Then 344.3 mg of USP grade Triamcinolone Acetonide (TA) was mixed with 206.6 mL of dissolved HA in a sterile 250 mL Nalgene bottle. […] No additives were added to the control sample. For each large sample, 2±0.2 mL aliquots were placed in a sterile 4 mL glass vial which was then sealed with septum and aluminum cap. All these aliquoted samples, except the 0 hour samples, were placed in an oven set at 60° C. With the exception of the Day 0 samples, at each time point (Day 1, Day 3 and Day 6), 3 of the samples were removed from the oven and allowed to cool to room temperature. The viscosity of each sample was measured using AR550 Rheometer (TA Instrument) with 40 mm 2° steel cone at 22° C. with a 3 min time sweep. The percent retention of the HA viscosity was determined by the ratio of the viscosity (average of the 3 samples) on the specified day to that on Day 0. The stabilization ratio at Day 6 is the ratio of the percent retention of HA viscosity with the specific additive to the percent retention of HA viscosity of the sample with no additive.

[7] = Effect of sucrose on HA (730) viscosity at 55° C. (Example 11); conditions: HA (730 KDa) solution
Protocol: 4.7 g of HA (Lifecore, 730 KDa) was dissolved in 600 mL of 0.9% NaCl overnight. The dissolved HA was sterile filtered with 0.2 um filter (Millipore, Opticap 4″). 0.86 mL of 1 M Sodium Phosphate, pH 6.71 was added to 171.8 mL of the HA solution. Then 248.2 mg of USP grade Triamcinolone acetonide (TA) was mixed with 148.9 mL of dissolved HA in a sterile 250 mL Nalgene bottle. […] Each mixture was mixed for 1 hour. No additives were added to the control sample. For each large sample, 2±0.2 mL aliquots were placed in a sterile 4 mL glass vial which was then sealed with septum and aluminum cap. All these aliquoted samples, except the 0 hour samples, were placed in an oven set at 55° C. With the exception of the 0 hour samples, at each time point (Day 1, Day 3 and Day 7), 3 of the samples were removed from the oven and allowed to cool to room temperature. The viscosity of each sample was measured using AR550 Rheometer (TA Instrument) with 40 mm 2° steel cone at 22° C. with a 3 min time sweep. The percent retention of the HA viscosity was determined by the ratio of the viscosity (average of the 3 samples) on the specified day to that on Day 0.

[8] = Effect of sucrose on HA viscosity at 60° C. (Example 2); conditions: HA solution
Protocol: 6.9 g of HA (Lifecore, 888 KDa) was dissolved in 881 mL of 0.9% NaCl overnight. The dissolved HA was sterile filtered with 0.2 μm filter (Millipore, Opticap 4″). 3.97 mL of 1 M Sodium Phosphate, pH 6.71 was added to the HA solution. Then 372 mg of USP grade triamcinolone acetonide (TA) was mixed with 223.2 mL of dissolved HA in a sterile 250 mL Nalgene bottle. […] Each mixture was mixed for 1 hour. No additives were added to the control sample. For each large sample, 2±0.2 mL aliquots were placed in a sterile 4 mL glass vial which was then sealed with septum and aluminum cap. All these aliquoted samples, except the 0 hour samples, were placed in an oven set at 60° C. With the exception of the Day 0 samples, at each time point, 3 of the samples were removed from the oven and allowed to cool to room temperature. The viscosity of each sample was measured using AR550 Rheometer (TA Instrument) with 40 mm 2° steel cone at 22° C. with a 3 min time sweep. The percent retention of the HA viscosity was determined by the ratio of the viscosity (average of the 3 samples) on the specified day to that on Day 0. The stabilization ratio at Day 6 is the ratio of the percent retention of HA viscosity with the specific additive to the percent retention of HA viscosity of the sample with no additive.

[9] = Effect of sucrose on HA viscosity at 40° C. (Example 4); conditions: HA solution
Protocol: 6.9 g of HA (Lifecore, 888 KDa) was dissolved in 881 mL of 0.9% NaCl overnight. The dissolved HA was sterile filtered with 0.2 μm filter (Millipore, Opticap 4″). 3.97 mL of 1 M sodium phosphate, pH 6.71 was added to the HA solution. Then 372 mg of USP grade triamcinolone acetonide (TA) was mixed with 223.2 mL of dissolved HA in a sterile 250 mL Nalgene bottle. […] Each mixture was mixed for 1 hour. No additives were added to the control sample. For each large sample, 2±0.2 mL aliquots were placed in a sterile 4 mL glass vial which was then sealed with septum and aluminum cap. All these aliquoted samples, except the Week 0 samples, were placed in an oven set at 40° C. With the exception of the Day 0 samples, at each time point, 3 of the samples were removed from the oven and allowed to cool to room temperature. The viscosity of each sample was measured using AR550 Rheometer (TA Instrument) with 40 mm 2° steel cone at 22° C. with a 3 min time sweep. The percent retention of the HA viscosity was determined by the ratio of the viscosity (average of the 3 samples) on the specified day to that on Week 0. The stabilization ratio at Week 6 is the ratio of the percent retention of HA viscosity with the specific additive to the percent retention of HA viscosity of the sample with no additive.

[10] = Effect of additives on HA viscosity at 60° C., HA/triamcinolone hexacetonide (Example 18); conditions: HA solution
Protocol: 19.6 g of HA (Shiseido, IV=2 m^3/kg) was dissolved in 2.5 L of 0.9% NaCl overnight. The dissolved HA was sterile filtered with 0.2 um filter (Millipore, Opticap 4″). 1.15 mL of 1 M Sodium Phosphate, pH 6.71 was added to 228.9 mL of the HA solution. Then 334.9 mg of USP grade Triamcinolone hexacetonide(TH) was mixed with 200.95 mL of dissolved HA in a sterile 250 mL Nalgene bottle. […] Each mixture was mixed for 1 hour. No additives were added to the control sample. For each large sample, 2±0.2 mL aliquots were placed in a sterile 4 mL glass vial which was then sealed with septum and aluminum cap. All these aliquoted samples, except the Day 0 samples, were placed in an oven set at 60° C. With the exception of the Day 0 samples, at each time point, 3 of the samples were removed from the oven and allowed to cool to room temperature. The viscosity of each sample was measured using AR550 Rheometer (TA Instrument) with 40 mm 2° steel cone at 22° C. with a 3 min time sweep. The percent retention of the HA viscosity was determined by the ratio of the viscosity (average of the 3 samples) on the specified day to that on Day 0. The stabilization ratio at Day 6 is the ratio of the percent retention of HA viscosity with the specific additive to the percent retention of HA viscosity of the sample with no additive.

Row | effect of presence of corticosteroid on HA viscosity vs HA without it (in words) [2] | effect of presence of corticosteroid on HA viscosity vs HA without it (in words) [3] | effect of presence of corticosteroid on HA viscosity vs HA without it (in words) [4] | effect of presence of corticosteroid on HA viscosity vs same formulation without it (in words) [5] | effect of presence of corticosteroid on HA viscosity vs HA without it (in words) [6] | effect of presence of corticosteroid on HA viscosity vs HA without it (in words) [8] | effect of presence of corticosteroid on HA viscosity vs HA without it (in words) [9] | effect of presence of corticosteroid on HA viscosity vs HA without it (in words) [10] | Compound | effect of presence of corticosteroid on HA viscosity vs HA without it (in words) [1] | effect of presence of corticosteroid on HA viscosity vs HA without it (in words) [7]
1 | increased degradation of the HA | increased degradation of the HA | increased degradation of the HA | decreased more rapidly over time | increased degradation of the HA | increased degradation of the HA | increased degradation of the HA | – | CC1(C)O[C@@H]2C[C@H]3[C@@H]4CCC5=CC(=O)C=C[C@]5(C)[C@@]4(F)[C@@H](O)C[C@]3(C)[C@]2(C(=O)CO)O1 [TA, triamcinolone acetonide] | increased decrease in the viscosity of the HA | increased decrease in the viscosity of the HA
2 | – | – | – | – | – | – | – | decrease in the viscosity of the HA | CC(C)(C)CC(=O)OCC(=O)[C@@]12OC(C)(C)O[C@@H]1C[C@H]1[C@@H]3CCC4=CC(=O)C=C[C@]4(C)[C@@]3(F)[C@@H](O)C[C@@]12C [triamcinolone hexacetonide, Triamcinolone hexacetonide] | – | –
